Test results published in ChEMBL document CHEMBL5532680, “Identification of a Sonically Activated Degrader of Methionine Adenosyltransferase 2A by an in Silico Approach Assisted with the Hole-Electron Analysis” (J Med Chem, 2024).
Calls of active or inactive are those of the source. The calls are words filed in the database; no cut-off is given here.

Experiments:
[1] = Induction of ROS generation in PBS at 10 uM incubated for 10 mins under 1.0 MHz, 1.2W/cm2 ultrasound treatment by DCFH staining based fluorescence assay; format: functional
HCT-116 = assay: Induction of apoptosis in MTAP knocked out human HCT-116 cells at 0.1 uM preincubated for 24 hrs followed by sonication for 4 mins by annexin V-FITC/PI staining based flow cytometry analysis relative to control; format: functional, cell-based; conditions: time 1444.0 min

CCOc1ncc2cc(-c3ccc4nc5n(c4c3)CCN(C(C)=O)C5)c(=O)n(-c3ccc(OC(F)F)cc3)c2n1
Activity [1]: inactive

CCOc1ncc2cc(-c3ccc4nc5n(c4c3)CCN(C)C5)c(=O)n(-c3ccc(OC(F)F)cc3)c2n1
Activity [1]: inactive | Activity (HCT-116): Active

CCOc1ncc2cc(-c3ccc4c(c3)OCC3(CCN(C)CC3)O4)c(=O)n(-c3ccc(OC(F)F)cc3)c2n1
Activity [1]: Active

CCOc1ncc2cc(-c3ccc4c(c3)C3(CC3)CO4)c(=O)n(-c3ccc(OC(F)F)cc3)c2n1
Activity [1]: Active
